# Assay results published in patent US20250270200A1, “CTPS1 INHIBITORS AND USES THEREOF” (Nimbus Clotho, Inc., priority 2022, published 2025).
# pIC50: −log10 of the molar value. Counter-ions that a name gives are not always drawn.
# Biological target: T1, human CTPS1 (Homo sapiens, UniProt P17812)
# T1 sequence (P17812 1-591): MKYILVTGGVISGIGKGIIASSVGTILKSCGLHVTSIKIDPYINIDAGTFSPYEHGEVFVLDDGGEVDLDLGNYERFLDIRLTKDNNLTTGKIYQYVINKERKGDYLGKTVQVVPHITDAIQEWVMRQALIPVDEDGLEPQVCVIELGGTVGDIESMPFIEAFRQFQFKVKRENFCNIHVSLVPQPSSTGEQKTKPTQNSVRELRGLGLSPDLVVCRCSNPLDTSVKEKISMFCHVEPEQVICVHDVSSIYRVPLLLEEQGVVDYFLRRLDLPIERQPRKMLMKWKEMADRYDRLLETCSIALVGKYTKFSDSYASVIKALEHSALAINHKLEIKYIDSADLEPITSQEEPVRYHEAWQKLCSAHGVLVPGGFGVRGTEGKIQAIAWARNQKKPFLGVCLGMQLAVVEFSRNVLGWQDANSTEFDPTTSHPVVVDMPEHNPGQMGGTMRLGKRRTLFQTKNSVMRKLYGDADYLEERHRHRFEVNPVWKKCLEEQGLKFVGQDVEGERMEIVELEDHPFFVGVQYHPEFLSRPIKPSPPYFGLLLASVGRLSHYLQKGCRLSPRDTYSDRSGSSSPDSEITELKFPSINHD
# Experiment: ADP-Glo assay, human CTPS1 enzyme inhibition
# Format: biochemical
# Conditions: wild-type human CTPS1 25 nM; ATP 120 μM, UTP 160 μM, GTP 60 μM, L-glutamine 100 μM; 25 degrees C.; read-out: ADP-Glo_WT_hCTPS1—25 nM_IC50 (IC50)
# Summary of the method: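 ADP-Glo luminescence quantified ADP produced by 25 nM purified human CTPS1 (full length, FLAG-His tagged) at 25° C within the linear phase. Final substrates: ATP 120 μM, UTP 160 μM, GTP 60 μM, L-glutamine 100 μM; 1% DMSO; pH 7.4 HEPES buffer with Mg2+, KCl, DTT. Compound pre-incubated with enzyme 10 min, then with ATP/UTP 10 min.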
row,pIC50,SMILES
1,7.60 to 8.30,"COC[C@H](NC(=O)c1ncc(-c2cnn3ccc(Cl)cc23)s1)c1nccc(NS(=O)(=O)C2CC2)n1 (single isomer, unassigned) [II-9]"
2,7.60 to 8.30,"CCOc1cncc(-c2cnc(C(=O)N[C@H](c3nccc(NS(=O)(=O)C4CC4)c3F)[C@H]3CCOC3)s2)n1 (single isomer, unassigned) [II-17]"
3,7.60 to 8.30,"O=C(N[C@@H](c1nccc(NS(=O)(=O)C2CC2)c1F)[C@@H]1CCOC1)c1ncc(-c2cnn3ccc(Cl)cc23)s1 (single isomer, unassigned) [II-4]"

# Same assay, conditions: wild-type human CTPS1, 25 nM enzyme; ADP-Glo; read-out: ADP-Glo_WT_hCTPS1—25 nM_IC50 (IC50)
row,pIC50,SMILES
1,7.60 to 8.30,"CCOc1cncc(-c2cnc(C(=O)NCc3cc(NS(=O)(=O)C4CC4)ncn3)s2)n1 [I-5, N-((6-(cyclopropanesulfonamido)pyrimidin-4-yl)methyl)-5-(6-ethoxypyrazin-2-yl)thiazole-2-carboxamide]"
2,7.60 to 8.30,"CCOc1cncc(-c2cnc(C(=O)N[C@@H](CN3CC[C@@](C)(O)C3)c3cccc(NS(=O)(=O)C(F)F)c3)s2)n1 [I-206, N-((R)-1-(3-((difluoromethyl)sulfonamido)phenyl)-2-((R)-3-hydroxy-3-methylpyrrolidin-1-yl)ethyl)-5-(6-ethoxypyrazin-2-yl)thiazole-2-carboxamide]"
3,7.60 to 8.30,"CCOc1cncc(-c2cnc(C(=O)N[C@@H](CC(C)(C)N(C)C)c3cc(NS(=O)(=O)C4CC4)ccn3)s2)n1 [I-50, (S)-N-(1-(4-(cyclopropanesulfonamido)pyridin-2-yl)-3-(dimethylamino)-3-methylbutyl)-5-(6-ethoxypyrazin-2-yl)thiazole-2-carboxamide]"
4,7.00 to 7.30,"CCOc1cncc(-c2cnc(C(=O)N[C@H](c3cc(NS(=O)(=O)C4CC4)ccn3)[C@H](C)N3C[C@H]4C[C@@H]3CO4)s2)n1 [I-166, N-((1S,2S)-2-((1R,4R)-2-oxa-5-azabicyclo[2.2.1]heptan-5-yl)-1-(4-(cyclopropanesulfonamido)pyridin-2-yl)propyl)-5-(6-ethoxypyrazin-2-yl)thiazole-2-carboxamide]"
5,7.60 to 8.30,"O=C(N[C@@H](c1cc(NS(=O)(=O)C2CC2)ccn1)[C@H]1CCOC1)c1ncc(-c2cnn3ccc(Cl)cc23)s1 (single isomer, unassigned) [I-25]"
6,< 7.00,"CCOc1cncc(-c2cnc(C(=O)N[C@H](c3cc(NS(=O)(=O)C4CC4)ccn3)[C@@H]3CCN(C4CCCC4)C3)s2)n1 [I-94, N-((S)-((R)-1-cyclopentylpyrrolidin-3-yl)(4-(cyclopropanesulfonamido)pyridin-2-yl)methyl)-5-(6-ethoxypyrazin-2-yl)thiazole-2-carboxamide]"
7,7.60 to 8.30,"CCOc1cncc(-c2cnc(C(=O)N[C@H](c3cc(NS(=O)(=O)C4CC4)ncn3)[C@H]3CCOC3)s2)n1 [I-259, N-((S)-(6-(cyclopropanesulfonamido)pyrimidin-4-yl)((R)-tetrahydrofuran-3-yl)methyl)-5-(6-ethoxypyrazin-2-yl)thiazole-2-carboxamide]"
8,7.00 to 7.30,"CN(C)C[C@H](NC(=O)c1ncc(-c2cnn3ccc(Cl)cc23)s1)c1cc(NS(=O)(=O)C2CC2)ccn1 [I-164, (S)-5-(5-chloropyrazolo[1,5-a]pyridin-3-yl)-N-(1-(4-(cyclopropanesulfonamido)pyridin-2-yl)-2-(dimethylamino)ethyl)thiazole-2-carboxamide, formic acid salt]"
9,7.60 to 8.30,"CCOc1cncc(-c2cnc(C(=O)N[C@@H](CN3CCN(C4CC4)CC3)c3cccc(NS(=O)(=O)C(F)F)c3)s2)n1 (single isomer, unassigned) [I-41]"
10,≥ 8.30,"CCOc1cncc(-c2cnc(C(=O)N[C@@H](c3cc(NS(=O)(=O)C4CC4)ccn3)[C@@H]3C[C@@H]4CC[C@H]3O4)s2)n1 [I-81, N-((R)-((1R,2S,4S)-7-oxabicyclo[2.2.1]heptan-2-yl)(4-(cyclopropanesulfonamido)pyridin-2-yl)methyl)-5-(6-ethoxypyrazin-2-yl)thiazole-2-carboxamide]"
11,7.00 to 7.30,"CC(C)(O)[C@@H](NC(=O)c1ncc(-c2cnn3ccc(Cl)cc23)s1)c1cc(NS(=O)(=O)C2CC2)ccn1 [I-278, (S)-5-(5-chloropyrazolo[1,5-a]pyridin-3-yl)-N-(1-(4-(cyclopropanesulfonamido)pyridin-2-yl)-2-hydroxy-2-methylpropyl)thiazole-2-carboxamide]"
12,7.30 to 7.60,"CCOc1cncc(-c2cnc(C(=O)N[C@@H](CN3CCOC[C@H]3C)c3cc(NS(=O)(=O)C4CC4)ccn3)s2)n1 (single isomer, unassigned) [I-32]"
13,7.60 to 8.30,"CCOc1cncc(-c2cnc(C(=O)N[C@H](CO[C@@H]3CCOC3)c3cc(NS(=O)(=O)C4CC4)ccn3)s2)n1 [I-240, N-((S)-1-(4-(cyclopropanesulfonamido)pyridin-2-yl)-2-(((R)-tetrahydrofuran-3-yl)oxy)ethyl)-5-(6-ethoxypyrazin-2-yl)thiazole-2-carboxamide]"
14,7.60 to 8.30,"O=C(N[C@]1(c2cc(NS(=O)(=O)C3CC3)ccn2)C[C@H](O)C1)c1ncc(-c2cnn3ccc(Cl)cc23)s1 [I-89, 5-(5-chloropyrazolo[1,5-a]pyridin-3-yl)-N-((1s,3s)-1-(4-(cyclopropanesulfonamido)pyridin-2-yl)-3-hydroxycyclobutyl)thiazole-2-carboxamide]"
15,7.60 to 8.30,"O=C(N[C@H](c1cc(NS(=O)(=O)C2CC2)ccn1)[C@H]1CCOC1)c1ncc(-c2cnn3ccc(Cl)cc23)s1 (single isomer, unassigned) [I-22]"
16,7.60 to 8.30,"CCOc1cncc(-c2cnc(C(=O)NCc3cncc(NS(=O)(=O)C4CC4)n3)s2)n1 [I-180, N-((6-(cyclopropanesulfonamido)pyrazin-2-yl)methyl)-5-(6-ethoxypyrazin-2-yl)thiazole-2-carboxamide]"
17,7.60 to 8.30,"CCOc1cncc(-c2cnc(C(=O)N[C@H](c3cc(NS(=O)(=O)C4CC4)ccn3)[C@@H]3COCCO3)s2)n1 [I-74, N-((R)-(4-(cyclopropanesulfonamido)pyridin-2-yl)((R)-1,4-dioxan-2-yl)methyl)-5-(6-ethoxypyrazin-2-yl)thiazole-2-carboxamide]"
18,7.60 to 8.30,"CCOc1cncc(-c2cnc(C(=O)N[C@H](CN3C[C@H]4COC[C@H]4C3)c3cc(NS(=O)(=O)C4CC4)ccn3)s2)n1 (single isomer, unassigned) [I-31]"
19,7.60 to 8.30,"CCOc1cncc(-c2cnc(C(=O)N[C@@H](Cn3ccccc3=O)c3cc(NS(=O)(=O)C4CC4)ccn3)s2)n1 [I-140, (S)-N-(1-(4-(cyclopropanesulfonamido)pyridin-2-yl)-2-(2-oxopyridin-1(2H)-yl)ethyl)-5-(6-ethoxypyrazin-2-yl)thiazole-2-carboxamide]"
20,7.60 to 8.30,"COCC[C@H](NC(=O)c1ncc(-c2cnn3ccc(Cl)cc23)s1)c1cc(NS(=O)(=O)C2CC2)ccn1 (single isomer, unassigned) [I-1]"
21,≥ 8.30,"CCOc1cncc(-c2cnc(C(=O)N[C@]3(c4cc(NS(=O)(=O)C5CC5)ccn4)C[C@@H](O)C3)s2)n1 [I-88, N-((1r,3r)-1-(4-(cyclopropanesulfonamido)pyridin-2-yl)-3-hydroxycyclobutyl)-5-(6-ethoxypyrazin-2-yl)thiazole-2-carboxamide]"
22,7.30 to 7.60,"CCOc1cncc(-c2cnc(C(=O)N[C@@H](CN3CCCC3)c3cc(NS(=O)(=O)C4CC4)ncn3)s2)n1 [I-250, (S)-N-(1-(6-(cyclopropanesulfonamido)pyrimidin-4-yl)-2-(pyrrolidin-1-yl)ethyl)-5-(6-ethoxypyrazin-2-yl)thiazole-2-carboxamide]"
23,≥ 8.30,"CCOc1cncc(-c2cnc(C(=O)N[C@@H](c3cc(NS(=O)(=O)C4CC4)ccn3)[C@H](C)CO)s2)n1 [I-227, N-((1R,2S)-1-(4-(cyclopropanesulfonamido)pyridin-2-yl)-3-hydroxy-2-methylpropyl)-5-(6-ethoxypyrazin-2-yl)thiazole-2-carboxamide]"
24,7.60 to 8.30,"CCOc1cncc(-c2cnc(C(=O)N[C@H](C[C@H]3CCCCN3C(C)C)c3cc(NS(=O)(=O)C4CC4)ccn3)s2)n1 (single isomer, unassigned) [I-27]"
25,7.60 to 8.30,"CCOc1cncc(-c2cnc(C(=O)N[C@@H](c3cc(NS(=O)(=O)C4CC4)ccn3)C3CCOCC3)s2)n1 [I-19, (R)—N-((4-(cyclopropanesulfonamido)pyridin-2-yl)(tetrahydro-2H-pyran-4-yl)methyl)-5-(6-ethoxypyrazin-2-yl)thiazole-2-carboxamide]"
26,7.60 to 8.30,"CCOc1cncc(-c2cnc(C(=O)N[C@@H](CN3C[C@H]4CC[C@@H]3C4)c3cccc(NS(=O)(=O)C(F)F)c3)s2)n1 [I-210, N-((R)-2-((1R,4S)-2-azabicyclo[2.2.1]heptan-2-yl)-1-(3-((difluoromethyl)sulfonamido)phenyl)ethyl)-5-(6-ethoxypyrazin-2-yl)thiazole-2-carboxamide]"
